Laboratory results: patent publication US20200270588A1, “GLUCOSYL TRANSFERASE POLYPEPTIDES AND METHODS OF USE” (Syngenta Participations AG, priority 2017, published 2020)
Values joined by “and” are separate entries in the source; they are usually repeats but may differ in a detail not shown here. Identical values can stand only once.

Experiments:
[1] = target: T1, SEQ ID 35, mutant bx-type glucosyl transferase (Zea mays, UniProt Q8W2B7, A437P); test: LC/MS glucosyl transferase assay (glucoside peak area), purified enzyme; assay type: biochemical; settings: about 60 min, ~15 pmol enzyme, relative quantification only
T1 construct: 35; 3.66E+05; 8.20E+07; 5.96E+06; His tag; made in house
T1 sequence (Q8W2B7 whole entry A437P): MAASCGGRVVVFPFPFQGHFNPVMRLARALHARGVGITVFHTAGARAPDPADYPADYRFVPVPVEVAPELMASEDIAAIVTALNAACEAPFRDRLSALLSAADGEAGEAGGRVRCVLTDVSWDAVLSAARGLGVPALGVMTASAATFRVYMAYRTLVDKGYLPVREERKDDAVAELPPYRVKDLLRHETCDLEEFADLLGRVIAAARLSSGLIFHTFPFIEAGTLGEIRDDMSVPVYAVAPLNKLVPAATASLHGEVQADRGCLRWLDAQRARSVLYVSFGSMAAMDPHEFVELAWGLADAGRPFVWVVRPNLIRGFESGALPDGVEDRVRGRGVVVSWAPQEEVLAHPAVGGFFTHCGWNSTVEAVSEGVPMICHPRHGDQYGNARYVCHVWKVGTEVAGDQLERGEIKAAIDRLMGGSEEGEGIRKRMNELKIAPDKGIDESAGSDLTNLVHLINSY
Protocol: (§1) In an alternative method for assaying the various enzymes, the test glucosyl transferase enzyme is reacted with substrates exactly as above except that the assay is stopped by adding an equal volume of acetonitrile. Alternatively 50 or 100 μl samples from assay reactions are added to 500 μl ethyl acetate to stop the reaction. In this case samples are then vortexed and 400 μl of the ethyl acetate partition removed, dried down, and resuspended in 100 μl 80:20 acetonitrile/water. The formation of product gluco side and/or disappearance of substrate test herbicide is then monitored directly by LC/MS. Samples are analyzed by LC-MS using an Agilent 1290 liquid chromatography system and Thermo Q-Exactive mass spectrometer. The chromatography is achieved on a Waters Acquity C18 BEH (50×2.1 mm) 1.7 μm particle size column, using a 6 minute gradient run of Water (0.2% formic acid) and Acetonitrile. The Q-Exactive is operated in positive ionisation electrospray mode, using Full scan-AIF mode, at 35,000 resolution, between 100-800 m/z. All analytes are identified from the full scan data to within at least 5 ppm accuracy of their predicted pseudo-molecular ion [M+H]^+ m/z value. In order to obtain quantitative data standard curves are run using herbicides and herbicide glucosides synthesized as standards. Where these synthetic glucosides were not available the LC/MS assay could only be used to provide relative data.
(§2) DNA sequences, optimized for E. coli codon usage, were cloned, expressed and the various proteins purified and assayed as described in the foregoing examples. Using the UDP assay (as described in examples 1, 3 and 6) the data obtained from the Zea mays bx8 w/t protein and its variants was noisy due to relatively high background rates in DMSO reagent blanks. The values reported in the table 15 were thus monitored by LC/MS as described in example 1.

[2] = system: SEQ ID 43, mutant bx-type glucosyl transferase; test: as above; assay type: biochemical; settings: about 60 min, ~15 pmol enzyme, nd = not detectable
Protocol: as §1, §2

[3] = system: SEQ ID 45, mutant bx-type glucosyl transferase; test: as above; assay type: biochemical; settings: about 60 min, ~15 pmol enzyme, nd = not detectable
Protocol: as §1, §2

[4] = target: T2, Zea mays bx8 (SEQ ID No: 2) with GIGVD peptide insert in place of D442 (Zea mays, UniProt Q8W2B7, INS441GIGV); test: as above; assay type: biochemical; settings: LC/MS assay run for 30 min
T2 construct: His tag (N); made in house; host or cells: E. coli, pET24a
T2 sequence (Q8W2B7 other isoform, or with tags, fused parts or gaps INS441GIGV): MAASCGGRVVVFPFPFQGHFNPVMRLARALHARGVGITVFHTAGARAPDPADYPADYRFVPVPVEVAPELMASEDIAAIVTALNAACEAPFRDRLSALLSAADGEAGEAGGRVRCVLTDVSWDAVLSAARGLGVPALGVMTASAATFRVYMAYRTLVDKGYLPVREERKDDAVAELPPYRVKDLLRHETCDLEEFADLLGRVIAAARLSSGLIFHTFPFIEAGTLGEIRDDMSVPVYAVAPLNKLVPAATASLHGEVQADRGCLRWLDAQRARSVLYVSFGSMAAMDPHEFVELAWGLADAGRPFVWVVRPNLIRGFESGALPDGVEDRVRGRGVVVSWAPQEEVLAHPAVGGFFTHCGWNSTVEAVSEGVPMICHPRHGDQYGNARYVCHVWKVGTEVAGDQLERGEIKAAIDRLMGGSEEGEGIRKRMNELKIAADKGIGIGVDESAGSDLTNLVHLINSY
Protocol: as §1, with “Where these synthetic glucosides were not available the LC/MS assay could only be used to provide relative data.” left out

[5] = system: transgenic tobacco plants expressing SEQ ID NO: 17; test: Glass house spray test on tobacco, percent damage; assay type: in vivo; settings: for tolerance compared with w/t and SEQ ID NO: 1 plants: 200 and 500 g/ha, 14 DAT, several events
Text: (§3) Three transgenic populations of about forty tobacco plants and comprising, a glucosyl transferase gene encoding either zmBX8 (SEQ ID NO 2) or zmBX9 (SEQ ID NO 1) were thus produced. A sub-set of about 30 plants were selected on the basis of similar size from each population for spray testing. The plants were then sprayed with 30 g/ha of Compound VI. VI was mixed in water with 0.2-0.25% X-77 surfactant and sprayed from a boom on a suitable track sprayer moving at 2 mph with the nozzle about 2 inches from the plant tops. Spray volume was 200 l/ha. Plants were assessed for damage and scored at 7 and 14 days after treatment (DAT).
(§4) In a further example, Zea mays BX8 or BX9 or orthologues of BX8/9, are altered to carry amino acid variants at various positions which increase tolerance to the alcohol and aminal PSII herbicides as described in the example above. DNA sequences that encode these polypeptides (optimized for tobacco or, optionally, codon optimized according to a target crop such as soybean) were prepared for tobacco transformation as described in example 10. […] Transgenic tobacco populations expressing SEQ ID NOs 16 and 17 were generated alongside a population expressing the parental zmBX9 sequence (SEQ ID 1). These populations were sprayed with herbicide V and VI at rates of 200 and 500 g/ha. Plants were assessed for damage and scored at 14 days after treatment (DAT). The results are depicted in Table 19 and also in FIG. 6.

wild type tobacco plants = test: Glass house spray test on tobacco, percent damage; assay type: in vivo; settings: 14 DAT
Protocol: Once rooted, plantlets are transferred from agar and potted into 50% peat, 50% John Innes Soil No. 3 with slow-release fertilizer in 3 inch round pots and left regularly watered to establish for 8-12d in the glass house. Glass house conditions are about 24-27° C. day; 18-21° C. night and approximately a 14h photoperiod. Humidity is adjusted to ˜65% and light levels used are up to 2000 μmol/m^2 at bench level.
as §3, §4

| Compound | integrated peak area of beta-glucoside product [1] | integrated peak area of beta-glucoside product [2] | integrated peak area of beta-glucoside product [3] | integrated peak area of glucoside product [4] [units] | tolerance compared with w/t and SEQ ID NO: 1 plants [5] | percent damage (wild type tobacco plants; 200 gai/ha V, WT tobacco plants 1-9) [%] | percent damage (wild type tobacco plants; 500 gai/ha V, WT tobacco plants 1-9) [%] | tolerance ([5]; 1 kg/ha, events 7937, 7940, 7952, 8039, 8071, 8106 expressing SEQ ID NOs 16 and 17, data not shown) | percent damage (wild type tobacco plants; 30 g/ha compound VI, plants A, B, C) | percent damage (wild type tobacco plants; 500 gai/ha VI, WT tobacco plants 1-9) [%] |
| --- | --- | --- | --- | --- | --- | --- | --- | --- | --- | --- |
| CN1CC(O)N(c2cc(C(F)(F)F)ccn2)C1=O (centres unmarked) [Compound V] | 5.96E+06 and 4.40E+06 | 3.88E+05 and 2.26E+05 | 1.56E+05 and 9.51E+04 | 2.5E6 | much superior tolerance | 100 | 100 | – | – | – |
| CON1C(=O)N(c2cc(C(F)(F)F)ccn2)C(O)[C@@H]1C (some centres unmarked) [Compound VI] | – | – | – | – | much superior tolerance | – | – | substantially fully tolerant | 75% and 95% and 85% | 100 |
